Literature values as cited in paper PMC2698789 (Pancreas, 2008).

Test system: sst 2 receptor

SMILES: C[C@@H](O)[C@@H]1NC(=O)[C@H](CCCCN)NC(=O)[C@@H](Cc2c[nH]c3ccccc23)NC(=O)[C@H](Cc2ccccc2)NC(=O)[C@@H](NC(=O)[C@H](N)Cc2ccccc2)CSSC[C@@H](C(=O)N[C@H](CO)[C@@H](C)O)NC1=O [octreotide, Octreotide acetate]
- Receptor subtype preference among somatostatin receptors sst 1–sst 5: binds preferentially to sst 2
